This passage reports Ki results from BindingDB's records for doi:10.1021/jm00081a005 (University of Wisconsin-Madison, 1992).

This assay can be described thus: Compound was tested for binding affinity towards cytosolic aminopeptidase.

As a reminder, the Ki is a measure of affinity in units of concentration, obtained from inhibition or displacement. The low end stands for higher affinity, the high end for lower affinity. As for `CC(=O)[C@@H](N)CC(C)C`, the Ki was over 600 µM.
